Columns and labels:
Assay type in all cases: in vivo
Conditions in all cases: rating 0-100 (0 no damage, 100 complete death), 14 days after application
[1] = tested on: common ragweed (Ambrosia artemisiifolia L., AMBEL); assay: Post-emerge herbicidal activity, greenhouse screen, AMBEL
Text: (§1) A standard greenhouse herbicide activity screening system was used to evaluate the herbicidal efficacy and crop safety of these test compounds. Seven broadleaf weed species including redroot pigweed (Amaranthus retroflexus, AMARE), velvetleaf (Abutilon theophrasti, ABUTH), sicklepod (Cassia obtusifolia, CASOB), ivyleaf morningglory (Ipomoea hederacea, IPOHE), lambsquarters (Chenopodium album, CHEAL), common ragweed (Ambrosia artemisiifolia L., AMBEL), and cocklebur (Xanthium strumarium, XANST) were used as test species. Four grass weed species including green foxtail (Setaria viridis, SETVI), barnyardgrass (Echinochloa crus-galli, ECHCG), johnsongrass (Sorghum halepense, SORHA), and large crabgrass (Digitaria sanguinalis, DIGSA) were also used. In addition, three crop species, field corn (Zea mays L., var. Dekalb 527, CORN), soybean (Glycine max L., var. Pella 86, SOY), and upland rice (Oryza sp., var. Tebonnet, RICE) were included.
(§2) All plants were grown in 10 cm square plastic pots which were filled with a sandy loam soil mix. For pre-emerge tests, seeds were planted one day prior to application of the test compounds. For post-emerge tests, seeds were planted 8-21 days prior to the test to allow emergence and good foliage development prior to application of the test substances. At the time of the post-emerge application, plants of all species were usually at the 2-3 leaf stage of development.
(§3) All test compounds were dissolved in acetone and applied to the test units in a volume of 187 l/ha. Test materials were applied at rates ranging from 15 g ai/ha to 1000 g ai/ha using a track sprayer equipped with a TJ8001 E even flow flat fan spray nozzle. Plants were arranged on a shelf so that the top of the canopy (post-emerge) or top of the soil surface (pre-emerge) was 40-45 cm below the nozzle. Pressurized air was used to force the test solution through the nozzle as it was mechanically advanced over the top of all test plants/pots. This application simulates a typical commercial field herbicide application.
(§4) In the post-emerge test, a commercial non-ionic surfactant was also included (0.25% v/v) to enhance wetting of the leaf surfaces of target plants. Immediately after application, test units of the pre-emerge applications were watered at the soil surface to incorporate the test materials.
(§5) At 14 days after application of the test materials, phytotoxicity ratings were recorded. A rating scale of 0-100 was used as previously described in Research Methods in Weed Science, 2nd edition, B. Truelove, Ed., Southern Weed Science Society, Auburn University, Auburn, Ala., 1977. Briefly, “0” corresponds to no damage and “100” corresponds to complete death of all plants in the test unit. This scale was used both to determine efficacy against weed species and damage to crop species. Herbicide activity data for various compounds of this invention, which are shown by compound No. in Tables 1-7, are shown in Tables 8 and 9.

[2] = tested on: velvetleaf (Abutilon theophrasti, ABUTH); assay: Post-emerge herbicidal activity, greenhouse screen, ABUTH
Text: as §1, §2, §3, §4, §5

[3] = tested on: velvetleaf (Abutilon theophrasti, ABUTH); assay: Pre-emerge herbicidal activity, greenhouse screen, ABUTH
Text: as §1, §2, §3, §4, §5

[4] = tested on: lambsquarters (Chenopodium album, CHEAL); assay: Pre-emerge herbicidal activity, greenhouse screen, CHEAL
Text: as §1, §2, §3, §4, §5

[5] = tested on: ivyleaf morningglory (Ipomoea hederacea, IPOHE); assay: Pre-emerge herbicidal activity, greenhouse screen, IPOHE
Text: as §1, §2, §3, §4, §5

[6] = tested on: green foxtail (Setaria viridis, SETVI); assay: Pre-emerge herbicidal activity, greenhouse screen, SETVI
Text: as §1, §2, §3, §4, §5

[7] = tested on: ivyleaf morningglory (Ipomoea hederacea, IPOHE); assay: Post-emerge herbicidal activity, greenhouse screen, IPOHE
Text: as §1, §2, §3, §4, §5

[8] = tested on: soybean (Glycine max L., var. Pella 86, SOY); assay: Post-emerge crop damage, greenhouse screen, SOY
Text: as §1, §2, §3, §4, §5

[9] = tested on: large crabgrass (Digitaria sanguinalis, DIGSA); assay: Post-emerge herbicidal activity, greenhouse screen, DIGSA
Text: as §1, §2, §3, §4, §5

[10] = tested on: soybean (Glycine max L., var. Pella 86, SOY); assay: Pre-emerge crop damage, greenhouse screen, SOY
Text: as §1, §2, §3, §4, §5

[11] = tested on: lambsquarters (Chenopodium album, CHEAL); assay: Post-emerge herbicidal activity, greenhouse screen, CHEAL
Text: as §1, §2, §3, §4, §5

[12] = tested on: field corn (Zea mays L., var. Dekalb 527, CORN); assay: Pre-emerge crop damage, greenhouse screen, CORN
Text: as §1, §2, §3, §4, §5

[13] = tested on: redroot pigweed (Amaranthus retroflexus, AMARE); assay: Pre-emerge herbicidal activity, greenhouse screen, AMARE
Text: as §1, §2, §3, §4, §5

[14] = tested on: large crabgrass (Digitaria sanguinalis, DIGSA); assay: Pre-emerge herbicidal activity, greenhouse screen, DIGSA
Text: as §1, §2, §3, §4, §5

[15] = tested on: johnsongrass (Sorghum halepense, SORHA); assay: Pre-emerge herbicidal activity, greenhouse screen, SORHA
Text: as §1, §2, §3, §4, §5

[16] = tested on: redroot pigweed (Amaranthus retroflexus, AMARE); assay: Post-emerge herbicidal activity, greenhouse screen, AMARE
Text: as §1, §2, §3, §4, §5

[17] = tested on: barnyardgrass (Echinochloa crus-galli, ECHCG); assay: Pre-emerge herbicidal activity, greenhouse screen, ECHCG
Text: as §1, §2, §3, §4, §5

[18] = tested on: sicklepod (Cassia obtusifolia, CASOB); assay: Post-emerge herbicidal activity, greenhouse screen, CASOB
Text: as §1, §2, §3, §4, §5

[19] = tested on: common ragweed (Ambrosia artemisiifolia L., AMBEL); assay: Pre-emerge herbicidal activity, greenhouse screen, AMBEL
Text: as §1, §2, §3, §4, §5

[20] = tested on: field corn (Zea mays L., var. Dekalb 527, CORN); assay: Post-emerge crop damage, greenhouse screen, CORN
Text: as §1, §2, §3, §4, §5

[21] = tested on: sicklepod (Cassia obtusifolia, CASOB); assay: Pre-emerge herbicidal activity, greenhouse screen, CASOB
Text: as §1, §2, §3, §4, §5

[22] = tested on: upland rice (Oryza sp., var. Tebonnet, RICE); assay: Post-emerge crop damage, greenhouse screen, RICE
Text: as §1, §2, §3, §4, §5

[23] = tested on: green foxtail (Setaria viridis, SETVI); assay: Post-emerge herbicidal activity, greenhouse screen, SETVI
Text: as §1, §2, §3, §4, §5

[24] = tested on: upland rice (Oryza sp., var. Tebonnet, RICE); assay: Pre-emerge crop damage, greenhouse screen, RICE
Text: as §1, §2, §3, §4, §5

[25] = tested on: barnyardgrass (Echinochloa crus-galli, ECHCG); assay: Post-emerge herbicidal activity, greenhouse screen, ECHCG
Text: as §1, §2, §3, §4, §5

[26] = tested on: johnsongrass (Sorghum halepense, SORHA); assay: Post-emerge herbicidal activity, greenhouse screen, SORHA
Text: as §1, §2, §3, §4, §5

Structure (SMILES): Cn1c(C(F)(F)F)cc(=O)n(-c2ccc(Cl)c3nc(C(C)(C)C)oc23)c1=S [Compound 1-4]
- Post-emerge Herbicidal Activity AMBEL ([1]; 63 g ai/ha): 90
- Post-emerge Herbicidal Activity AMBEL ([1]; 250 g ai/ha): 90
- Post-emerge Herbicidal Activity ABUTH ([2]; 63 g ai/ha): 100
- Post-emerge Herbicidal Activity ABUTH ([2]; 250 g ai/ha): 100
- Pre-emerge Herbicidal Activity ABUTH ([3]; 63 g ai/ha): 100
- Pre-emerge Herbicidal Activity ABUTH ([3]; 250 g ai/ha): 100
- Pre-emerge Herbicidal Activity CHEAL ([4]; 63 g ai/ha): 100
- Pre-emerge Herbicidal Activity CHEAL ([4]; 250 g ai/ha): 100
- Pre-emerge Herbicidal Activity IPOHE ([5]; 63 g ai/ha): 99
- Pre-emerge Herbicidal Activity IPOHE ([5]; 250 g ai/ha): 100
- Pre-emerge Herbicidal Activity SETVI ([6]; 63 g ai/ha): 100
- Pre-emerge Herbicidal Activity SETVI ([6]; 250 g ai/ha): 100
- Post-emerge Herbicidal Activity IPOHE ([7]; 63 g ai/ha): 95
- Post-emerge Herbicidal Activity IPOHE ([7]; 250 g ai/ha): 100
- Post-emerge Herbicidal Activity SOY (crop damage) ([8]; 63 g ai/ha): 50
- Post-emerge Herbicidal Activity SOY (crop damage) ([8]; 250 g ai/ha): 50
- Post-emerge Herbicidal Activity DIGSA ([9]; 63 g ai/ha): 0
- Post-emerge Herbicidal Activity DIGSA ([9]; 250 g ai/ha): 20
- Pre-emerge Herbicidal Activity SOY (crop damage) ([10]; 63 g ai/ha): 10
- Pre-emerge Herbicidal Activity SOY (crop damage) ([10]; 250 g ai/ha): 80
- Post-emerge Herbicidal Activity CHEAL ([11]; 63 g ai/ha): 100
- Post-emerge Herbicidal Activity CHEAL ([11]; 250 g ai/ha): 100
- Pre-emerge Herbicidal Activity CORN (crop damage) ([12]; 63 g ai/ha): 15
- Pre-emerge Herbicidal Activity CORN (crop damage) ([12]; 250 g ai/ha): 85
- Pre-emerge Herbicidal Activity AMARE ([13]; 63 g ai/ha): 100
- Pre-emerge Herbicidal Activity AMARE ([13]; 250 g ai/ha): 100
- Pre-emerge Herbicidal Activity DIGSA ([14]; 63 g ai/ha): 100
- Pre-emerge Herbicidal Activity DIGSA ([14]; 250 g ai/ha): 100
- Pre-emerge Herbicidal Activity SORHA ([15]; 63 g ai/ha): 100
- Pre-emerge Herbicidal Activity SORHA ([15]; 250 g ai/ha): 100
- Post-emerge Herbicidal Activity AMARE ([16]; 63 g ai/ha): 100
- Post-emerge Herbicidal Activity AMARE ([16]; 250 g ai/ha): 100
- Pre-emerge Herbicidal Activity ECHCG ([17]; 63 g ai/ha): 100
- Pre-emerge Herbicidal Activity ECHCG ([17]; 250 g ai/ha): 100
- Post-emerge Herbicidal Activity CASOB ([18]; 63 g ai/ha): 60
- Post-emerge Herbicidal Activity CASOB ([18]; 250 g ai/ha): 99
- Pre-emerge Herbicidal Activity AMBEL ([19]; 63 g ai/ha): 80
- Pre-emerge Herbicidal Activity AMBEL ([19]; 250 g ai/ha): 100
- Post-emerge Herbicidal Activity CORN (crop damage) ([20]; 63 g ai/ha): 0
- Post-emerge Herbicidal Activity CORN (crop damage) ([20]; 250 g ai/ha): 30
- Pre-emerge Herbicidal Activity CASOB ([21]; 63 g ai/ha): 70
- Pre-emerge Herbicidal Activity CASOB ([21]; 250 g ai/ha): 100
- Post-emerge Herbicidal Activity RICE (crop damage) ([22]; 63 g ai/ha): 60
- Post-emerge Herbicidal Activity RICE (crop damage) ([22]; 250 g ai/ha): 65
- Post-emerge Herbicidal Activity SETVI ([23]; 63 g ai/ha): 50
- Post-emerge Herbicidal Activity SETVI ([23]; 250 g ai/ha): 100
- Pre-emerge Herbicidal Activity RICE (crop damage) ([24]; 63 g ai/ha): 60
- Pre-emerge Herbicidal Activity RICE (crop damage) ([24]; 250 g ai/ha): 90
- Post-emerge Herbicidal Activity ECHCG ([25]; 63 g ai/ha): 90
- Post-emerge Herbicidal Activity ECHCG ([25]; 250 g ai/ha): 100
- Post-emerge Herbicidal Activity SORHA ([26]; 63 g ai/ha): 20
- Post-emerge Herbicidal Activity SORHA ([26]; 250 g ai/ha): 30

— patent US20040018941A1, “Fused-benzene derivatives of thiouracil, herbicidal and desiccant compositions contaning them” (ISHIHARA SANGYO KAISHA, LTD., priority 2002, published 2004)
